3 compounds from ChEMBL document CHEMBL6121070, “Covalent-Allosteric Inhibitors: Do We Get the Best of Both Worlds?” (J Med Chem, 2025) can be followed below.

Experiment [1] has as its target T1, Tyrosine-protein phosphatase non-receptor type 11 (Homo sapiens, UniProt Q06124).
T1 sequence (Q06124 whole entry): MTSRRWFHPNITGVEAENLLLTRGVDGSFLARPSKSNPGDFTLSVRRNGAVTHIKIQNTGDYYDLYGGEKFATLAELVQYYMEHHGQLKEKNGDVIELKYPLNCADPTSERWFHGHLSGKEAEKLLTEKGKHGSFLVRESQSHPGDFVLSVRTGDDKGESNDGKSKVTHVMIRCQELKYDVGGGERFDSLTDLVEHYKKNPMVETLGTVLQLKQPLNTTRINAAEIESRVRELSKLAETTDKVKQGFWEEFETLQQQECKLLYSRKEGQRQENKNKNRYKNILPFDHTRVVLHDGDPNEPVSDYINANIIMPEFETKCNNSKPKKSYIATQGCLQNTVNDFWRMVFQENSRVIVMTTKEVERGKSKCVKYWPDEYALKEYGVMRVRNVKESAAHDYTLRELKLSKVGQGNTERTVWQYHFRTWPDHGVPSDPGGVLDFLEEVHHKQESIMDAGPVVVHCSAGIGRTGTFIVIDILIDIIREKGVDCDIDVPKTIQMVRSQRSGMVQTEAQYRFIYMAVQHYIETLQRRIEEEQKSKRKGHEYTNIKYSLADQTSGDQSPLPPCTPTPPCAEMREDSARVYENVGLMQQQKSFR
Briefly: Binding affinity to SHP2 (unknown origin) assessed as inhibition constant.

Experiment [2] concerns the target T2, Tyrosine-protein phosphatase non-receptor type 1 (Homo sapiens, UniProt P18031).
T2 sequence (P18031 whole entry): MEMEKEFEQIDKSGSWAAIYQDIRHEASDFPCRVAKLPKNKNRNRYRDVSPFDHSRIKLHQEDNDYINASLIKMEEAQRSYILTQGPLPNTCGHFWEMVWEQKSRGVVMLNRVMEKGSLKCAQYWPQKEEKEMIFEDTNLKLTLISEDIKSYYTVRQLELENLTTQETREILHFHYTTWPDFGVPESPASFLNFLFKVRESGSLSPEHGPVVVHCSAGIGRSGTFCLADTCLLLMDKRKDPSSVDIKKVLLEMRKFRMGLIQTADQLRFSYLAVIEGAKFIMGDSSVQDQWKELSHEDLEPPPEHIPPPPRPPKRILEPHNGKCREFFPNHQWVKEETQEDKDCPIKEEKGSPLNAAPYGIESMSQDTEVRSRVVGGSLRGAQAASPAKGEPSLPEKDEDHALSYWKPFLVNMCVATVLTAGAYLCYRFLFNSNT
Briefly: Inhibition of 6xHis-tagged human PTP1B catalytic domain using pNPP as substrate by […] based assay.

Experiment [3] is described as follows: Covalent allosteric inhibition of full length AKT (unknown origin). Details: species or system Homo sapiens.
The nature of experiment [4]: Non-competitive allosteric inhibition of PTP1B (unknown origin) transformed in Escherichia coli BL21. Details: species or system Homo sapiens.

As to `C=CC(=O)Nc1ccnc2ccccc12`, in experiment [1], the Ki worked out at 279 µM. The same compound had an IC50 in experiment [2] of 35 µM.

Turning to `C=CC(=O)Nc1cccc(C(=O)NC2CCN(Cc3ccc(-c4nc5cc[nH]c(=O)c5cc4-c4ccccc4)cc3)CC2)c1`, the Ki in experiment [3] is 0.0069 µM.

In turn, `CN(C)CCSSCC(=O)Nc1cc(-c2ccc(F)cc2F)ccc1O` registered a Ki in experiment [4] of 7.1 µM.

In general, IC50 refers to the midpoint of a concentration-inhibition curve. Read a high IC50 as lower potency.
